{"source": "patent US20140323504A1", "about": "“Pyrazolo[4,3-c]Pyridine Derivatives As Kinase Inhibitors” (Cellzome Limited, priority 2011, published 2014)", "target": "T1, JAK3 (Homo sapiens, UniProt P52333)", "T1 sequence (P52333 1-1124)": "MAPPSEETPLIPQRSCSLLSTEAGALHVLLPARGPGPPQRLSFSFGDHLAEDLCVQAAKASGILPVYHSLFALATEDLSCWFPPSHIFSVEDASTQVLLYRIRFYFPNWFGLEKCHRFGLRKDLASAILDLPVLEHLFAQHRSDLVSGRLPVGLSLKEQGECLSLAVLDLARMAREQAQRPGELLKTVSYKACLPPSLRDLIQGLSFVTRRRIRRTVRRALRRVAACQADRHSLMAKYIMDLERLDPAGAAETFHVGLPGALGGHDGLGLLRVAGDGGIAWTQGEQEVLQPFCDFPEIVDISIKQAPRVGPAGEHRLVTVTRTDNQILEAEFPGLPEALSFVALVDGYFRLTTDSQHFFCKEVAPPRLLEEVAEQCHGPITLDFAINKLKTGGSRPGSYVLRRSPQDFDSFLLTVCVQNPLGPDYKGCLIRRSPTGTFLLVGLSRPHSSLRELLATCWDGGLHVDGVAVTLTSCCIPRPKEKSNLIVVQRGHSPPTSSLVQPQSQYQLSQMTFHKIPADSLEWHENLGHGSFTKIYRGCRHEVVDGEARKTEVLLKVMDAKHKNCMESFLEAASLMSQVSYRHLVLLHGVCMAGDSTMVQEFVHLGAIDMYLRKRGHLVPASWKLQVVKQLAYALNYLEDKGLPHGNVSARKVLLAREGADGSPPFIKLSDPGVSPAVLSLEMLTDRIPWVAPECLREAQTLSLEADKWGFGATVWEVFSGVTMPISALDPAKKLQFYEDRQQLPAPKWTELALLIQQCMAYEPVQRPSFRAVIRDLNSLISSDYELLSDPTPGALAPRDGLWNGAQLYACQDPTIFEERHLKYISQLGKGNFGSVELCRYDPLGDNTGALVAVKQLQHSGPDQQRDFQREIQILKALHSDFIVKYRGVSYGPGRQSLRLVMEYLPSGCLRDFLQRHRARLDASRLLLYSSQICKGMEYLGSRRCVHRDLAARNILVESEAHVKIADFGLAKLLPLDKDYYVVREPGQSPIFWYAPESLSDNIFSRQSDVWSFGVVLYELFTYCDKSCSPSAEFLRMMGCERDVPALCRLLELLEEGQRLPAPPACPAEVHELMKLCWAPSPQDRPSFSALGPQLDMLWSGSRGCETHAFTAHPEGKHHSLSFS", "test": "Mass spectrometry identification of a JAK3 peptide modified by compound", "type": "binding", "design": "endogenous in cells; host or cells: Jurkat cells (ATCC TIB-152, clone E6-1) lysate; immunoprecipitated with anti-JAK3 antibody", "settings": "Jurkat cell lysate, 10 μM compound, 45 minutes, JAK3 immunoprecipitation, LC-MS/MS", "description": "Mass spectrometry analysis of immunoprecipitated JAK3 after compound treatment was used to determine whether compound example 1 covalently binds to JAK3. Jurkat cell lysate was pre-incubated with 10 μM of compound example 1 for 45 minutes. Control samples were incubated without compound (DMSO controls). Subsequently JAK3 was immunoprecipitated with an anti-JAK3 antibody (Abeam ab45141). In addition, a control experiment was performed with anti-IgG (mock immunoprecipitation). The precipitated proteins were separated by SDS-polyacrylamide gel electrophoresis. The gel was stained with colloidal Coomassie and stained areas of each gel lane were cut out and subjected to in-gel proteolytic digestion with trypsin. The peptides originating from the three samples were labeled with iTRAQ reagents as shown in Table 13 and the combined samples were analyzed with a nano-flow liquid chromatography system coupled online to a tandem mass spectrometer (LC-MS/MS) experiment followed by iTRAQ reporter ion quantification in the MSMS spectra (Ross et al., 2004. Mol. Cell. Proteomics 3(12):1154-1169). The gel area containing JAK3 was analysed for 270 minutes with HCDiq (high mass accuracy MSMS spectra) on a Orbitrap Velos mass spectrometer. For the Mascot search standard parameters plus a variable modification of cysteine by compound example 1 was used. […]", "note": "“Also recorded” adds a separate entry of the source.", "data": [{"compound": "C=CC(=O)Nc1cccc(Cn2ncc3cnc(Nc4cnn(C)c4)nc32)c1", "note": "[Example 1, N-(3-((6-((1-Methyl-1H-pyrazol-4-yl)amino)-1H-pyrazolo[3,4-d]pyrimidin-1-yl)methyl)phenyl)acrylamide]", "values": [{"measurement": "covalent binding to JAK3 (modified residue/peptide)", "result": "modified at cysteine 909; also recorded: covalently bound to cystein residue 909 (Cys909) of JAK3"}]}]}
